The results in this text go back to patent US20210179636A1, “ANTIBACTERIAL COMPOUNDS” (priority 2016, published 2021).

Data set [1] deals with Pseudomonas aeruginosa ATCC 27853. The experiment in a line: MIC, broth microdilution (CLSI). It is filed as cell-based. The settings on record: P. aeruginosa ATCC 27853, 16-20 h, mode of three experiments. (Broth dilution looks for growth in wells or tubes with falling amounts of substance.)
In data set [2] the test system is Klebsiella pneumoniae ATCC 700603. Put plainly: MIC, broth microdilution (CLSI). It is filed as cell-based. The settings on record: K. pneumoniae ATCC 700603, 16-20 h, mode of three experiments.
The test system of data set [3] is Streptococcus pneumoniae ATCC 49619. The experiment in a line: MIC, broth microdilution (CLSI). It is filed as cell-based. The settings on record: S. pneumoniae ATCC 49619, 16-20 h, mode of three experiments.
Data set [4] has as its system Escherichia coli ATCC 25922. Put plainly: MIC, broth microdilution (CLSI). It is filed as cell-based. The settings on record: E. coli ATCC 25922, 16-20 h, mode of three experiments.
The test system of data set [5] is Acinetobacter baumannii NCTC 13420. Put plainly: MIC, broth microdilution (CLSI). The settings on record: A. baumannii NCTC 13420, 16-20 h, mode of three experiments. The format is cell-based.
For data set [6], the system named is Enterobacter cloacae NCTC 13406. Put plainly: MIC, broth microdilution (CLSI). It is filed as cell-based. The settings on record: E. cloacae NCTC 13406, 16-20 h, mode of three experiments.
For data set [7], the system named is Staphylococcus aureus ATCC 29213. The experiment in a line: MIC, broth microdilution (CLSI). The format is cell-based. The settings on record: S. aureus ATCC 29213, 16-20 h, mode of three experiments.
A further data set relates to HepG2 ATCC HB-8065. The experiment in a line: Human cell viability assay (CellTiter-Glo). The settings on record: for IC50: Homo sapiens; for IC50 / IC50 HepG2: HepG2 cell viability, 24 h with compound, range 1-128 μg/mL. It is filed as cell-based. As for the experimental part:
Compounds are assessed for potential non-specific cytotoxic effects against a human hepatic cell line (HepG2 ATCC HB-8065). HepG2 cells are seeded at 20,000 cells/well in 96-well microtitre plates in minimal essential medium (MEM) supplemented with a final concentration of 10% FBS and 1 mM sodium pyruvate. After 24 h compound dilutions are prepared in Dulbecco's minimum essential media (DMEM) supplemented with final concentrations of 0.001% FBS, 0.3% bovine albumin and 0.02% HEPES and added to cells. Compounds are tested in two-fold serial dilutions over a final concentration range of 1-128 μg/mL in a final DMSO concentration of 1% vol/vol. Chlorpromazine is used as a positive control. Cells are incubated with compound at 37° C. and 5% CO2 for a further 24 h, after which time the CellTiter-Glo reagent (Promega) is added. Luminescence is measured on a BMG Omega plate reader. Data are analysed using GraphPad Prism software to determine the concentration of compound that inhibits cell viability by fifty percent (IC50).
(In ATP-based viability assays light output follows the ATP content of the culture.)

Data set [8] deals with Haemophilus influenzae ATCC 49247. The experiment in a line: MIC, broth microdilution (CLSI). The format is cell-based. The settings on record: H. influenzae ATCC 49247, 16-20 h, mode of three experiments.
Data set [9] relates to Mycobacterium smegmatis ATCC 19420. The experiment in a line: MIC, broth microdilution (CLSI). The format is cell-based. The settings on record: M. smegmatis ATCC 19420, 16-20 h, mode of three experiments.
The test system of a further data set is E. coli ATCC BAA-2452. The experiment in a line: MIC, broth microdilution (CLSI). The format is cell-based, Escherichia coli. The settings on record: 16-20 h, mode of three experiments.
The test system of another data set is E. coli MG1655 S83L. The format is cell-based, Escherichia coli. The settings on record: compared to the isogenic parent strain E. coli MG1655; S83L mutation on DNA gyrase subunit GyrA.
Another data set deals with E. coli MG1655 D87G. The format is cell-based, Escherichia coli. The settings on record: compared to the isogenic parent strain E. coli MG1655; D87G mutation on DNA gyrase subunit GyrA.
The subject of data set [10] is Acinetobacter baumannii ATCC 19606. Put plainly: MIC, broth microdilution (CLSI). The format is cell-based. The settings on record: A. baumannii ATCC 19606, 16-20 h, mode of three experiments.
In another data set the test system is E. coli MG1655 WT. The experiment in a line: MIC, broth microdilution (CLSI). The format is cell-based, Escherichia coli.
For the next data set, the system named is E. coli NCTC 13476. The experiment in a line: MIC, broth microdilution (CLSI). The format is cell-based, Escherichia coli. The settings on record: mode of three experiments.
Where [11] appears, read: Pseudomonas aeruginosa, ATCC27853, read-out: MIC.
The mark [12] stands for this setting: Klebsiella pneumoniae, ATCC700603, read-out: MIC.
[13] abbreviates: Streptococcus pneumoniae, ATCC49619, read-out: MIC.
Where [14] appears, read: Escherichia coli, ATCC25922, read-out: MIC.
The mark [15] stands for this setting: Acinetobacter baumannii, NCTC13420, read-out: MIC.
Setting [16] is: Enterobacter cloacae, NCTC13406, read-out: MIC.
The mark [17] stands for this setting: Staphylococcus aureus, ATCC29213, read-out: MIC.
[18] abbreviates: Haemophilus influenzae, ATCC49247, read-out: MIC.

Molecules are shown by their SMILES. Converted amounts (≈) assume the structure as drawn. Read-outs that look alike come from different tables or passages of the source.

In general, IC50 refers to the concentration that inhibits the measured activity by half. For `COc1ccc2ccc(=O)n(CCN3C[C@@H]4CN(c5ccc6c(n5)NC(=O)CO6)C(=O)O[C@H]4C3)c2n1` (relative stereo) [Compound 1], the MIC is 1 to 10 µg/mL (≈ 2.03 to 20.3 µM) in [1] (setting [11]); 10 to 100 µg/mL (≈ 20.3 to 203 µM) in [2] (setting [12]); under 1 µg/mL in [3] (setting [13]); under 1 µg/mL in data set [4] (setting [14]); under 1 µg/mL in data set [5] (setting [15]); 1 to 10 µg/mL (≈ 2.03 to 20.3 µM) in data set [6] (setting [16]). Besides, the MIC in data set [7] (setting [17]) is under 1 µg/mL; in [8] (setting [18]), under 1 µg/mL; in [9] (Mycolicibacterium smegmatis, ATCC19420, read-out: MIC) it was under 1 µg/mL. Moreover, in the data set on HepG2 ATCC HB-8065, the IC50 was over 100 µg/mL.

`N#Cc1ccc2ccc(=O)n(CCN3CC4CN(c5ccc6c(n5)NC(=O)CO6)C(=O)O[C@H]4C3)c2c1` (stereo in doubt) [Compound 17, 1-{2-[(4aS,7aR)-2-oxo-3-{3-oxo-2H,3H,4H-pyrido[3,2-b][1,4]oxazin-6-yl}-octahydropyrrolo[3,4-e][1,3]oxazin-6-yl]ethyl}-2-oxo-1,2-dihydroquinoline-7-carbonitrile]: the MIC in data set [1] (setting [11]) was 1 to 10 µg/mL (≈ 2.06 to 20.6 µM); in [2] (setting [12]), 10 to 100 µg/mL (≈ 20.6 to 206 µM); in data set [3] (setting [13]) it was under 1 µg/mL; in data set [4] (setting [14]) it was under 1 µg/mL; in the data set with E. coli ATCC BAA-2452 (Escherichia coli, read-out: MIC), 1 to 10 µg/mL (≈ 2.06 to 20.6 µM); in data set [5] (setting [15]), under 1 µg/mL. For the same compound, the MIC in [6] (setting [16]) was 1 to 10 µg/mL (≈ 2.06 to 20.6 µM); in [7] (setting [17]), under 1 µg/mL; in data set [10] (Acinetobacter baumannii, ATCC19606, read-out: MIC), 1 to 10 µg/mL (≈ 2.06 to 20.6 µM); in data set [8] (setting [18]), under 1 µg/mL; with E. coli MG1655 WT (Escherichia coli, MG1655) it was under 1 µg/mL; with E. coli NCTC 13476 (Escherichia coli, NCTC13476, 16-20 h, read-out: MIC) it was 1 to 10 µg/mL (≈ 2.06 to 20.6 µM). Besides, the “Fold increase in MIC against E. coli MG1655 S83L” value in the data set on E. coli MG1655 S83L worked out at 0.5 fold. Further, the “Fold increase in MIC against E. coli MG1655 D87G” value with E. coli MG1655 D87G worked out at 2 fold. Besides, the IC50 in the data set on HepG2 ATCC HB-8065 was over 100 µg/mL.

On to `COc1ccc2c3nocc3c(=O)n(CCN3C[C@H]4CN(c5ccc6c(n5)NC(=O)CO6)C(=O)O[C@H]4C3)c2c1` (relative stereo) [Compound 9, rel-(4aS*,7aR*-6-(2-{7-methoxy-4-oxo-4H,5H-[1,2]oxazolo[3,4-c]quinolin-5-yl}ethyl)-3-{3-oxo-2H,3H,4H-pyrido[3,2-b][1,4]oxazin-6-yl}-octahydropyrrolo[3,4-e][1,3]oxazin-2-one], for which the MIC result is “D (a MIC of over 100 is assigned the letter D)” in [1]; “D (a MIC of over 100 is assigned the letter D)” in data set [2]; “B (a MIC of from 1 to 10 is assigned the letter B)” in [3]; “C (a MIC of from 10 to 100 is assigned the letter C)” in [4]; “D (a MIC of over 100 is assigned the letter D)” in data set [5]; “D (a MIC of over 100 is assigned the letter D)” in data set [6]. Moreover, the MIC result in data set [7] was “A (an MIC (in μg/mL) of less or equal to 1 is assigned the letter A)”; in data set [10] it was “A (an MIC (in μg/mL) of less or equal to 1 is assigned the letter A)”; in [8], “B (a MIC of from 1 to 10 is assigned the letter B)”; in [9] it was “A (an MIC (in μg/mL) of less or equal to 1 is assigned the letter A)”. Further, in the data set with HepG2 ATCC HB-8065, the “IC50 HepG2” value is “C (an IC50 of from 1 to 10 is assigned the letter C)”.

For `O=C1COc2ccc(N3C[C@@H]4CN(CCn5c(=O)ccc6ccc(Oc7cccnc7)nc65)C[C@@H]4OC3=O)nc2N1` (relative stereo) [Compound 7, rel-1-{2-[(4aS*,7aR*-2-oxo-3-{3-oxo-2H,3H,4H-pyrido[3,2-b][1,4]oxazin-6-yl}-octahydropyrrolo[3,4-e][1,3]oxazin-6-yl]ethyl}-7-(pyridin-3-yloxy)-1,2-dihydro-1,8-naphthyridin-2-one], the MIC result in [1] is “C (a MIC of from 10 to 100 is assigned the letter C)”; in data set [2] it was “C (a MIC of from 10 to 100 is assigned the letter C)”; in [3] it was “A (an MIC (in μg/mL) of less or equal to 1 is assigned the letter A)”; in data set [4], “B (a MIC of from 1 to 10 is assigned the letter B)”; in data set [5], “B (a MIC of from 1 to 10 is assigned the letter B)”; in data set [6], “C (a MIC of from 10 to 100 is assigned the letter C)”. The MIC entry in data set [7], in data set [8] and in data set [9] was “A (an MIC (in μg/mL) of less or equal to 1 is assigned the letter A)” in each case. Moreover, the “IC50 HepG2” value in the data set on HepG2 ATCC HB-8065 was “A (an IC50 of over 100 is assigned the letter A)”.

In the case of `N#Cc1ccc2ccc(=O)n(CCN3C[C@H]4CN(c5ccc6c(n5)NC(=O)CO6)C(=O)O[C@H]4C3)c2c1` (relative stereo) [Compound 10, rel-1-{2-[(4aS*,7aR*-2-oxo-3-{3-oxo-2H,3H,4H-pyrido[3,2-b][1,4]oxazin-6-yl}-octahydropyrrolo[3,4-e][1,3]oxazin-6-yl]ethyl}-2-oxo-1,2-dihydroquinoline-7-carbonitrile], the MIC result is on record as “B (a MIC of from 1 to 10 is assigned the letter B)” in [1]; “B (a MIC of from 1 to 10 is assigned the letter B)” in data set [2]; “A (an MIC (in μg/mL) of less or equal to 1 is assigned the letter A)” in data set [3]; “A (an MIC (in μg/mL) of less or equal to 1 is assigned the letter A)” in [4]; “A (an MIC (in μg/mL) of less or equal to 1 is assigned the letter A)” against E. coli ATCC BAA-2452; “B (a MIC of from 1 to 10 is assigned the letter B)” in data set [5]. The MIC entry is “A (an MIC (in μg/mL) of less or equal to 1 is assigned the letter A)” in data set [6]; “A (an MIC (in μg/mL) of less or equal to 1 is assigned the letter A)” in data set [7]; “A (an MIC (in μg/mL) of less or equal to 1 is assigned the letter A)” in data set [10]; “A (an MIC (in μg/mL) of less or equal to 1 is assigned the letter A)” in [8]; “A (an MIC (in μg/mL) of less or equal to 1 is assigned the letter A)” with E. coli MG1655 WT (E. coli MG1655 WT, 16-20 h, mode of three experiments); “B (a MIC of from 1 to 10 is assigned the letter B)” against E. coli NCTC 13476 (16-20 h). In the data set on E. coli MG1655 S83L, the “Fold increase in MIC against E. coli MG1655 S83L” value came to 1 fold. Moreover, in the data set on E. coli MG1655 D87G, the “Fold increase in MIC against E. coli MG1655 D87G” value is listed as 1 fold. Further, the “toxicity against HepG2 human hepatic cell line (in words)” value in the data set on HepG2 ATCC HB-8065 is given as “no detectable toxicity”. The “IC50 HepG2” value with HepG2 ATCC HB-8065 was “A (an IC50 of over 100 is assigned the letter A)”.
